Counter-ions that a name gives are not always drawn. ± gives the uncertainty stated by the source.
System: HepG2 (L1.3 5'UTR promoter firefly luciferase reporter)
Test: L1 promoter activity (FLuc/RLuc) relative to DMSO vehicle control (% of control); higher = stronger L1 promoter activation
Procedure: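 HepG2 cells in 96-well plates were cotransfected with pGL4.11-L1.3 5'UTR (firefly luciferase driven by the human L1.3 5'UTR promoter) and pGL4.74 (HSV-TK Renilla luciferase internal control), then treated with compound for 6 or 24 h. FLuc/RLuc ratio was normalised to the DMSO vehicle control (% of control); concentrations where RLuc fell below 50% of control were excluded (N.D.). Mean of at least two independent experiments in duplicate or quadruplicate.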

[1] = concentration (uM unless unit written): 125, treatment time: 6 h
[2] = concentration (uM unless unit written): 125, treatment time: 24 h
[3] = concentration (uM unless unit written): 250, treatment time: 6 h
[4] = concentration (uM unless unit written): 250, treatment time: 24 h
[5] = concentration (uM unless unit written): 500, treatment time: 6 h
[6] = concentration (uM unless unit written): 500, treatment time: 24 h
[7] = concentration (uM unless unit written): 5, treatment time: 6 h
[8] = concentration (uM unless unit written): 5, treatment time: 24 h
[9] = concentration (uM unless unit written): 10, treatment time: 6 h
[10] = concentration (uM unless unit written): 10, treatment time: 24 h
[11] = concentration (uM unless unit written): 50, treatment time: 6 h
[12] = concentration (uM unless unit written): 50, treatment time: 24 h
[13] = concentration (uM unless unit written): 100, treatment time: 6 h
[14] = concentration (uM unless unit written): 1, treatment time: 6 h
[15] = concentration (uM unless unit written): 1, treatment time: 24 h
[16] = concentration (uM unless unit written): 3, treatment time: 6 h
[17] = concentration (uM unless unit written): 3, treatment time: 24 h

O=C(O)Cc1ccccc1Nc1c(Cl)cccc1Cl [Diclofenac]
L1 promoter activity [1]: 109 ± 7.5
L1 promoter activity [2]: 68.5 ± 3.6
L1 promoter activity [3]: 107 ± 1.6
L1 promoter activity [4]: 59.6 ± 5.5

CC1=CC(=O)c2ccccc2C1=O [Menadione]
L1 promoter activity (concentration (uM unless unit written): 17.5, treatment time: 6 h): 116 ± 11

OC(Cn1cncn1)(Cn1cncn1)c1ccc(F)cc1F [Fluconazole]
L1 promoter activity (concentration (uM unless unit written): 1250, treatment time: 6 h): 108 ± 11
L1 promoter activity (concentration (uM unless unit written): 1250, treatment time: 24 h): 99.5 ± 7.4
L1 promoter activity (concentration (uM unless unit written): 2500, treatment time: 6 h): 99.2 ± 6.7
L1 promoter activity (concentration (uM unless unit written): 2500, treatment time: 24 h): 92.7 ± 13

CN(Cc1cc(Br)cc(Br)c1N)C1CCCCC1 [Bromhexine hydrochloride]
L1 promoter activity (concentration (uM unless unit written): 62.5, treatment time: 6 h): 108 ± 14
L1 promoter activity (concentration (uM unless unit written): 62.5, treatment time: 24 h): 102 ± 7.2
L1 promoter activity [1]: 97.8 ± 12
L1 promoter activity [2]: 98.7 ± 12

Nc1nc2c(ncn2COC(CO)CO)c(=O)[nH]1 [Ganciclovir]
L1 promoter activity [5]: 109 ± 17
L1 promoter activity [6]: 98.3 ± 6.1
L1 promoter activity (concentration (uM unless unit written): 1000, treatment time: 6 h): 115 ± 16
L1 promoter activity (concentration (uM unless unit written): 1000, treatment time: 24 h): 104 ± 11

CCCc1nc2c(C)cc(-c3nc4ccccc4n3C)cc2n1Cc1ccc(-c2ccccc2C(=O)O)cc1 [Telmisartan]
L1 promoter activity (concentration (uM unless unit written): 1.25, treatment time: 6 h): 104 ± 11
L1 promoter activity (concentration (uM unless unit written): 1.25, treatment time: 24 h): 112 ± 8
L1 promoter activity (concentration (uM unless unit written): 2.5, treatment time: 6 h): 105 ± 8.6
L1 promoter activity (concentration (uM unless unit written): 2.5, treatment time: 24 h): 114 ± 9.7
L1 promoter activity [7]: 115 ± 3.5
L1 promoter activity [8]: 114 ± 9
L1 promoter activity [9]: 119 ± 15
L1 promoter activity [10]: 119 ± 3.6

CN1CC=C(c2ccccc2)CC1 [1-Methyl-4-phenyl-1,2,3,6-tetrahydropyridine]
L1 promoter activity [5]: 115 ± 11
L1 promoter activity [6]: 121 ± 19

COc1ccc2c(c1OC)C(=O)OC2C1c2c(cc3c(c2OC)OCO3)CCN1C [(S,R)-Noscapine]
L1 promoter activity [1]: 85.3 ± 11
L1 promoter activity [2]: 40.8 ± 2.2
L1 promoter activity [3]: 80.1 ± 20
L1 promoter activity [4]: 33.3 ± 5.6
L1 promoter activity [5]: 68.2 ± 9.4
L1 promoter activity [6]: 30.4 ± 4.2

Clc1ccc(C(c2ccccc2Cl)C(Cl)Cl)cc1 (configuration not stated) [o.p'-Dichlorodiphenyldichloroethane]
L1 promoter activity [11]: 97.3 ± 5
L1 promoter activity [12]: 108 ± 5.8
L1 promoter activity [13]: 77.5 ± 11

O=C(O)CC[N+](=O)[O-] [3-Nitropropionic acid]
L1 promoter activity [1]: 114 ± 5
L1 promoter activity [2]: 95.1 ± 5.4
L1 promoter activity [3]: 112 ± 14
L1 promoter activity [4]: 94.2 ± 18
L1 promoter activity [5]: 119 ± 14
L1 promoter activity [6]: 80.7 ± 11

Clc1ccccc1CN1CCc2sccc2C1 [Ticlopidine]
L1 promoter activity [9]: 117 ± 5.9
L1 promoter activity [10]: 124 ± 4.8
L1 promoter activity (concentration (uM unless unit written): 25, treatment time: 6 h): 107 ± 9.2
L1 promoter activity (concentration (uM unless unit written): 25, treatment time: 24 h): 104 ± 9.1
L1 promoter activity [11]: 96.2 ± 12
L1 promoter activity [12]: 113 ± 22
L1 promoter activity [13]: 97.5 ± 13
L1 promoter activity (concentration (uM unless unit written): 100, treatment time: 24 h): 129 ± 11

CC1=C2C(=CO[C@H](C)[C@H]2C)C(O)=C(C(=O)O)C1=O [Citrinin]
L1 promoter activity (concentration (uM unless unit written): 45, treatment time: 6 h): 101 ± 12
L1 promoter activity (concentration (uM unless unit written): 45, treatment time: 24 h): 104 ± 14
L1 promoter activity (concentration (uM unless unit written): 90, treatment time: 6 h): 102 ± 10
L1 promoter activity (concentration (uM unless unit written): 90, treatment time: 24 h): 134 ± 25

c1ccc2c(c1)cc1ccc3cccc4ccc2c1c34 [Benzo(a)pyrene]
L1 promoter activity (concentration (uM unless unit written): 0.5, treatment time: 6 h): 102 ± 12
L1 promoter activity (concentration (uM unless unit written): 0.5, treatment time: 24 h): 132 ± 17
L1 promoter activity [14]: 117 ± 12
L1 promoter activity [15]: 140 ± 22
L1 promoter activity [16]: 133 ± 18
L1 promoter activity [17]: 187 ± 37

CCC(C)(C)C(=O)O[C@H]1C[C@@H](C)C=C2C=C[C@H](C)[C@H](CC[C@@H]3C[C@@H](O)CC(=O)O3)[C@H]21 [Simvastatin]
L1 promoter activity [14]: 94.1 ± 18
L1 promoter activity [15]: 100 ± 12
L1 promoter activity [16]: 93.1 ± 7.7
L1 promoter activity [17]: 117 ± 14
L1 promoter activity (concentration (uM unless unit written): 6, treatment time: 6 h): 108 ± 18
L1 promoter activity (concentration (uM unless unit written): 6, treatment time: 24 h): 107 ± 15

CC(C)n1c(/C=C/C(O)CC(O)CC(=O)O)c(-c2ccc(F)cc2)c2ccccc21 (configuration not stated) [Fluvastatin]
L1 promoter activity [7]: 126 ± 35
L1 promoter activity [8]: 134 ± 32
L1 promoter activity [9]: 111 ± 32
L1 promoter activity [10]: 102 ± 23
L1 promoter activity (concentration (uM unless unit written): 20, treatment time: 6 h): 99.4 ± 19
L1 promoter activity (concentration (uM unless unit written): 20, treatment time: 24 h): 109 ± 25

Reference: the supplement of paper PMC3770661
